From the supplement of paper PMC11061612

Key:
Test in all cases: combination Emax (second highest fraction inhibited in the dose matrix, 72 h); higher = more inhibition; extreme values may be limits of the assay
MPP-89 (Mesothelioma) = system: MPP-89 (Mesothelioma)
Method in brief: (§1)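 Cell lines grown in DMEM/F12 or RPMI with 10% FBS were plated in 1536-well plates and held 24 hours at 37°C, 5% CO2 before 72 hours of exposure to two-drug dose matrices, with DMSO typically at 0.2%. CellTiter-Glo 2.0 luminescence gave viability, which was converted to inhibition. Vehicle wells were set to 0 and blank wells to 1. Combination Emax is the second-highest inhibition in the matrix, and Bliss excess is the observed combination effect minus the expected EA + EB − EA·EB, where EA and EB are the single-agent effects.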

[1] = system: MHH-CALL-2 (B-Lymphoblastic Leukemia)
Method in brief: as §1

[2] = system: Detroit562 (Head and Neck Carcinoma)
Method in brief: as §1

BE2-M17 (Neuroblastoma) = system: BE2-M17 (Neuroblastoma)
Method in brief: as §1

BPH-1 (Non-Cancerous) = system: BPH-1 (Non-Cancerous)
Method in brief: as §1

CAL-72 (Osteosarcoma) = system: CAL-72 (Osteosarcoma)
Method in brief: as §1

[3] = system: NCI-H209 (Small Cell Lung Carcinoma)
Method in brief: as §1

[4] = system: NUGC-4 (Gastric Carcinoma)
Method in brief: as §1

[5] = system: SAS (Oral Cavity Carcinoma)
Method in brief: as §1

[6] = system: BFTC-909 (Kidney Carcinoma)
Method in brief: as §1

[7] = system: CAL-33 (Oral Cavity Carcinoma)
Method in brief: as §1

[8] = system: Hs-746T (Gastric Carcinoma)
Method in brief: as §1

GAMG (Glioblastoma) = system: GAMG (Glioblastoma)
Method in brief: as §1

[9] = system: L-428 (Hodgkin's Lymphoma)
Method in brief: as §1

[10] = system: KMRC-20 (Kidney Carcinoma)
Method in brief: as §1

EW-11 (Ewing's Sarcoma) = system: EW-11 (Ewing's Sarcoma)
Method in brief: as §1

[11] = system: HeLa (Cervical Carcinoma)
Method in brief: as §1

[12] = system: FTC-133 (Thyroid Gland Carcinoma)
Method in brief: as §1

[13] = system: SW1573 (Lung Adenocarcinoma)
Method in brief: as §1

[14] = system: KYAE-1 (Esophageal Adenocarcinoma)
Method in brief: as §1

| Compound | combination Emax (MPP-89 (Mesothelioma)) | combination Emax [1] | combination Emax [2] | combination Emax (BE2-M17 (Neuroblastoma)) | combination Emax (BPH-1 (Non-Cancerous)) | combination Emax (CAL-72 (Osteosarcoma)) | combination Emax [3] | combination Emax [4] | combination Emax [5] | combination Emax [6] | combination Emax [7] | combination Emax [8] | combination Emax (GAMG (Glioblastoma)) | combination Emax [9] | combination Emax [10] | combination Emax (EW-11 (Ewing's Sarcoma)) | combination Emax [11] | combination Emax [12] | combination Emax [13] | combination Emax [14] |
| --- | --- | --- | --- | --- | --- | --- | --- | --- | --- | --- | --- | --- | --- | --- | --- | --- | --- | --- | --- | --- |
| CC1(C)CCC(CN2CCN(c3ccc(C(=O)NS(=O)(=O)c4ccc(NCC5CCOCC5)c([N+](=O)[O-])c4)c(Oc4cnc5[nH]ccc5c4)c3)CC2)=C(c2ccc(Cl)cc2)C1 [Venetoclax] + C=CCn1c(=O)c2cnc(Nc3ccc(N4CCN(C)CC4)cc3)nc2n1-c1cccc(C(C)(C)O)n1 [AZD1775] (first compound max 1 µM, partner max 1 µM) | 0.841 | 0.681 | 0.545 | 0.825 | 0.377 | 0.924 | 0.978 | 0.312 | 0.761 | 0.667 | 0.761 | 0.481 | 0.836 | 0.851 | 0.627 | 0.715 | 0.573 | 0.86 | 0.407 | 0.706 |
| COc1nnc2ccc(N3CCC(c4ccc(OCCN5CCN(C)C(=O)[C@H]5C)cc4)CC3)nn12 [AZD5153] + Cc1c2c(nn1C)CSCc1cc(n(C)n1)CSc1cc(c3ccccc3c1)OCCCc1c(C(=O)O)n(C)c3c-2c(Cl)ccc13 [AZD5991] (first compound max 1 µM, 7x7, partner max 1 µM) | 0.581 | 1 | 0.877 | 0.847 | 0.86 | 0.792 | 0.981 | 0.652 | 0.823 | 0.535 | 0.628 | 0.495 | 0.425 | 0.833 | 0.37 | 0.945 | 0.799 | 0.615 | 0.422 | 0.0912 |
| CC(=O)c1c(C)c2cnc(Nc3ccc(N4CCNCC4)cn3)nc2n(C2CCCC2)c1=O [Palbociclib] + Cc1c2c(nn1C)CSCc1cc(n(C)n1)CSc1cc(c3ccccc3c1)OCCCc1c(C(=O)O)n(C)c3c-2c(Cl)ccc13 [AZD5991] (first compound max 10 µM, 7x7, partner max 1 µM) | 0.261 | 0.998 | 0.569 | 0.409 | 0.281 | 0.441 | 0.908 | 0.252 | 0.538 | 0.406 | 0.291 | 0.299 | 0.305 | 0.353 | 0.291 | 0.605 | 0.39 | 0.18 | 0.2 | 0.126 |
